The record followed here is paper PMC7363806, “Characterization of Corosolic Acid as a KPC-2 Inhibitor That Increases the Susceptibility of KPC-2-Positive Bacteria to Carbapenems” (Frontiers in Pharmacology, 2020).

For the test, the target named is T1, KPC-2 (Klebsiella pneumoniae, UniProt Q9F663).
T1 construct: recombinant KPC-2 from pET28a (bla KPC-2 gene, NCBI NG_049253.1), expressed in E. coli BL21(DE3), Ni column purified
The experiment in a line: nitrocefin hydrolysis assay with purified KPC-2, absorbance at […] nm. In kind it is biochemical.

T1 sequence (Q9F663 25-293 limits assumed): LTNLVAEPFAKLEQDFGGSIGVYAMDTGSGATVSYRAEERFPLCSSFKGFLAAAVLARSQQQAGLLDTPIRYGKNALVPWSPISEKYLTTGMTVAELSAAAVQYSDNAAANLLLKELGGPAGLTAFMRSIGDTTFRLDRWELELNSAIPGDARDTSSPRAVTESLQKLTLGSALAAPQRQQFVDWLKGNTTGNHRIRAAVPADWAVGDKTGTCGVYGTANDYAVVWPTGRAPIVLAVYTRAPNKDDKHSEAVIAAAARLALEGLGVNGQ

`C[C@H]1[C@H](C)CC[C@]2(C(=O)O)CC[C@]3(C)C(=CC[C@@H]4[C@@]5(C)C[C@@H](O)[C@H](O)C(C)(C)[C@@H]5CC[C@]43C)[C@H]12` [CA, corosolic acid] showed an IC50 of 4.97 µM.
